Assay results published in patent US11534448B2, “Use of canagliflozin in preparation of antitumor drug” (ZHEJIANG UNIVERSITY, priority 2019, dated 2022).

How the values were obtained:
Assay type in all cases: cell-based, human
PD-L1 [1] = experiment: PD-L1 protein stability (cycloheximide chase, Western blotting, gray-scale analysis); settings: H1299 cells; IFNγ 10 ng/mL 24 h, then CHX (10 g/mL) + canagliflozin 20 μM vs CHX alone; 0-12 h; FIG. 3
Description: The non-small cell lung cancer H1299 cells were inoculated in 6-well plates (1.0×10^6 cells/well), and incubated overnight in incubator at 37° C. with 5% CO2. On the next day, the plates were first added with γ-interferon (IFNγ, 10 ng/mL), and after 24 hours, a protein synthesis inhibitor cycloheximide (CHX, […]) or a co-administration group of CHX ([…])+canagliflozin (20 μM) was administrated simultaneously for these plates. After 0 h, 2 h, 4 h, 6 h, 8 h, and 12 h, respectively, the cells were collected to detect the change of the protein level of PD-L1 in the cells by Western blotting, and a gray-scale analysis was performed to plot a curve for investigating the protein stability.

PD-L1 [2] = experiment: Flow cytometry of PD-L1 expression on cell surfaces; settings: canagliflozin 20 μM + IFNγ 10 ng/mL, 24 h, FIG. 2
Description: Two human tumor cell lines, non-small cell lung cancer H1299 cells and osteosarcoma MG63 cells, were selected and respectively inoculated in 6-well plates (1.0×10^6 cells/well), and incubated overnight in incubator at 37° C. with 5% CO2. On the next day, each plate was added with canagliflozin (20 μM) and γ-interferon (IFNγ, 10 ng/mL), and after 24 hours, the PD-L1 expressions on the cell surfaces were detected with flow cytometry.

osteosarcoma MG63 cells = experiment: Killing effect of activated T cells on co-incubated tumor cells (crystal violet staining); settings: MG63 cells treated with canagliflozin 20 μM + IFNγ 10 ng/mL for 24 h, PD-L1 antibody drug as positive control, FIG. 4
Description: (§1) PBMC cells were isolated from human blood samples using Ficoll separation solution, and then stimulated with CD3 and CD28 for 3 days to activate T cells in PBMC, and in the meantime, interleukin-2 (IL-2, 50 U/uL) was administrated to maintain the growth of T cells. The activated T cells were co-incubated with the tumor cells that had been treated with canagliflozin (20 μM) and γ-interferon (IFNγ, 10 ng/mL) for 24 hours. A PD-L1 antibody drug was used as a positive control. The killing effect of T cells on tumor cells was investigated, and a crystal violet staining method was employed to investigate the killing effect of T cells on tumor cells.

[3] = test system: non-small cell lung cancer H1299 cells; experiment: as above; settings: H1299 cells treated with canagliflozin 20 μM + IFNγ 10 ng/mL for 24 h, PD-L1 antibody drug as positive control, FIG. 4
Description: as §1

PD-L1 [4] = experiment: Western blotting of PD-L1 total protein expression in tumor cells; settings: canagliflozin 20 μM + IFNγ 10 ng/mL, 24 h, FIG. 1
Description: Multiple human tumor cells, non-small cell lung cancer H1299 cells and osteosarcoma MG63 cells, were selected and respectively inoculated in 6-well plates (1.0×10^6 cells/well), and incubated overnight in incubator at 37° C. with 5% CO2. On the next day, each plate was added with canagliflozin (20 μM) and γ-interferon (IFNγ, 10 ng/mL), and after 24 hours, the cells were collected and lysed to extract the proteins. The expression of PD-L1 in the cells were detected by Western blotting.

[5] = non-small cell lung cancer H1299 cells

Question: Which results are given for Cc1ccc([C@@H]2O[C@H](CO)[C@@H](O)[C@H](O)[C@H]2O)cc1Cc1ccc(-c2ccc(F)cc2)s1 [canagliflozin, (1S)-1,5-anhydro-1-C-[3-[[5-(4-fluorophenyl)-2-thienyl]methyl]-4-methylphenyl]-D-glucitol]?
Answer: degradation of the PD-L1 protein (PD-L1 [1]): significantly promoted the degradation of the PD-L1 protein; PD-L1 protein expression on the cell surface (PD-L1 [2]; [5]): significantly inhibited the PD-L1 protein expression on the tumor cell surfaces; PD-L1 protein expression on the cell surface (PD-L1 [2]; osteosarcoma MG63 cells): significantly inhibited the PD-L1 protein expression on the tumor cell surfaces; killing effect of T cells on tumor cells (osteosarcoma MG63 cells): significantly enhanced the killing effect of T cells on tumor cells; killing effect of T cells on tumor cells [3]: significantly enhanced the killing effect of T cells on tumor cells; PD-L1 total protein expression (PD-L1 [4]; [5]): significantly inhibited the PD-L1 total protein expression; PD-L1 total protein expression (PD-L1 [4]; osteosarcoma MG63 cells): significantly inhibited the PD-L1 total protein expression
